In ChEMBL document CHEMBL3600371, “Design and synthesis of imidazole N-H substituted amide prodrugs as inhibitors of hepatitis C virus replication” (Bioorg Med Chem Lett, 2015):

What was measured:
Hepatitis C virus [1] = test: Antiviral activity against HCV genotype 1b replicon infected in human HuH7 cells assessed as inhibition of viral RNA replication by luciferase reporter assay; assay type: functional, organism-based, Hepacivirus hominis; conditions: Huh-7
[2] = Stability of the compound in water at pH 2; assay type: physicochemical; conditions: buffer
[3] = Stability of the compound in water at pH 7; assay type: physicochemical; conditions: buffer
Rattus norvegicus [4] = test: Prodrug conversion in Sprague-Dawley rat assessed as formation of daclatasvir at 5 mg/kg, po measured over 9 hrs; assay type: ADME, organism-based; conditions: in vivo
[5] = Half life in blood (unknown origin); assay type: ADME, tissue-based
Rattus norvegicus [6] = test: Cmax in Sprague-Dawley rat assessed as daclatasvir at 5 mg/kg, po; assay type: ADME, organism-based; design: dose 5 mg/kg, route oral; conditions: in vivo
Rattus norvegicus [7] = test: Tmax in Sprague-Dawley rat assessed as daclatasvir at 5 mg/kg, po; assay type: ADME, organism-based; conditions: in vivo
Rattus norvegicus [8] = test: AUC (0 to 8 hrs) in Sprague-Dawley rat assessed as daclatasvir at 5 mg/kg, po; assay type: ADME, organism-based; design: time < 8 hr, dose 5 mg/kg, route oral; conditions: in vivo
Rattus norvegicus [9] = test: AUC (0 to infinity) in Sprague-Dawley rat assessed as daclatasvir at 5 mg/kg, po; assay type: ADME, organism-based; design: dose 5 mg/kg, time infinity, route oral; conditions: in vivo
Rattus norvegicus [10] = test: Mean residence time in Sprague-Dawley rat assessed as daclatasvir at 5 mg/kg, po; assay type: ADME, organism-based; conditions: in vivo
Rattus norvegicus [11] = test: Half life in Sprague-Dawley rat assessed as daclatasvir at 5 mg/kg, po; assay type: ADME, organism-based; conditions: in vivo
Hepatitis C virus [12] = test: Antiviral activity against HCV genotype 1 in patient assessed as virological response rate; assay type: functional, Hepacivirus hominis
[13] = Stability of the compound in blood (unknown origin); assay type: ADME, tissue-based
Rattus norvegicus [14] = test: Drug level in Sprague-Dawley rat treated with ((S,S)-5,5'-([1,1'-Biphenyl]-4,4'-diyl)bis(2-((S)-1-((S)-2-((methoxycarbonyl)amino)-3-methylbutanoyl)pyrrolidin-2-yl)-1H-imidazole-5,1-diyl))bis(2-oxoethane-2,1-diyl)diacetate at 5 mg/kg, po measured over 9 hrs; assay type: ADME, organism-based; conditions: in vivo
[15] = Cmax in Sprague-Dawley rat at 5 mg/kg, po; assay type: ADME, organism-based; design: dose 5 mg/kg, route oral; conditions: in vivo
[16] = Tmax in Sprague-Dawley rat at 5 mg/kg, po; assay type: ADME, organism-based; conditions: in vivo
[17] = AUC (0 to 8 hrs) in Sprague-Dawley rat at 5 mg/kg, po; assay type: ADME, organism-based; design: time < 8 hr, dose 5 mg/kg, route oral; conditions: in vivo
[18] = AUC (0 to infinity) in Sprague-Dawley rat at 5 mg/kg, po; assay type: ADME, organism-based; design: dose 5 mg/kg, route oral, time infinity; conditions: in vivo
[19] = Mean residence time in Sprague-Dawley rat at 5 mg/kg, po; assay type: ADME, organism-based; conditions: in vivo
[20] = Half life in Sprague-Dawley rat at 5 mg/kg, po; assay type: ADME, organism-based; conditions: in vivo
Hepatitis C virus [21] = test: microbe, parasite or virus in culture; conditions: JFH-1, Huh-7
Description: Antiviral activity against HCV genotype 1b JFH-1 infected in human HuH7 cells assessed as inhibition of viral replication

Q: For `COC(=O)N[C@H](C(=O)N1CCC[C@H]1c1ncc(-c2ccc(-c3ccc(-c4cnc([C@@H]5CCCN5C(=O)[C@@H](NC(=O)OC)C(C)C)n4C(=O)OC(C)C)cc3)cc2)n1C(=O)OC(C)C)C(C)C`, which EC50 (Hepatitis C virus [1]) is on record?
A: The EC50 was > 100000 nM.

Q: With `COC(=O)N[C@H](C(=O)N1CCC[C@H]1c1ncc(-c2ccc(-c3ccc(-c4cnc([C@@H]5CCCN5C(=O)[C@@H](NC(=O)OC)C(C)C)n4C(=O)CC4CCCCC4)cc3)cc2)n1C(=O)CC1CCCCC1)C(C)C` as the molecule, how does the EC50 (Hepatitis C virus [1]) read?
A: The EC50 was 110 nM.

Q: Which EC50 (Hepatitis C virus [1]) does the source give for `COC(=O)N[C@H](C(=O)N1CCC[C@H]1c1ncc(-c2ccc(-c3ccc(-c4cnc([C@@H]5CCCN5C(=O)[C@@H](NC(=O)OC)C(C)C)n4C(=O)C(C)(C)C)cc3)cc2)n1C(=O)C(C)(C)C)C(C)C` here?
A: Its EC50 is > 100000 nM.

Q: For `COC(=O)N[C@H](C(=O)N1CCC[C@H]1c1ncc(-c2ccc(-c3ccc(-c4cnc([C@@H]5CCCN5C(=O)[C@@H](NC(=O)OC)C(C)C)n4C(=O)CC(C)(C)C)cc3)cc2)n1C(=O)CC(C)(C)C)C(C)C`, which EC50 (Hepatitis C virus [1]) is on record?
A: The EC50 was > 100000 nM.

Q: Which EC50 (Hepatitis C virus [1]) does the source give for `CCCCCCC(=O)n1c(-c2ccc(-c3ccc(-c4cnc([C@@H]5CCCN5C(=O)[C@@H](NC(=O)OC)C(C)C)n4C(=O)CCCCCC)cc3)cc2)cnc1[C@@H]1CCCN1C(=O)[C@@H](NC(=O)OC)C(C)C` here?
A: Its EC50 is 542 nM.

Q: For `COC(=O)N[C@H](C(=O)N1CCC[C@H]1c1ncc(-c2ccc(-c3ccc(-c4cnc([C@@H]5CCCN5C(=O)[C@@H](NC(=O)OC)C(C)C)n4C(C)=O)cc3)cc2)n1C(C)=O)C(C)C`, which EC50 (Hepatitis C virus [1]) is on record?
A: Its EC50 is 12 nM.

Q: Which EC50 (Hepatitis C virus [1]) does the source give for `COC(=O)N[C@H](C(=O)N1CCC[C@H]1c1ncc(-c2ccc(-c3ccc(-c4cnc([C@@H]5CCCN5C(=O)[C@@H](NC(=O)OC)C(C)C)n4C(=O)CCc4ccccc4)cc3)cc2)n1C(=O)CCc1ccccc1)C(C)C` here?
A: The EC50 was 988 nM.

Q: For `COC(=O)N[C@H](C(=O)N1CCC[C@H]1c1ncc(-c2ccc(-c3ccc(-c4cnc([C@@H]5CCCN5C(=O)[C@@H](NC(=O)OC)C(C)C)n4C(=O)COC(C)=O)cc3)cc2)n1C(=O)COC(C)=O)C(C)C`, which EC50 (Hepatitis C virus [1]) is on record?
A: The EC50 was 0.08 nM.

Q: What about the Stability [2] of the same molecule?
A: The Stability was “Stable”.

Q: What about the Stability [3] of the same molecule?
A: The Stability was “Stable”.

Q: What about the Drug metabolism (Rattus norvegicus [4]) of the same molecule?
A: The Drug metabolism was “metabolite_detected”.

Q: What about the half-life [5] of the same molecule?
A: Its half-life is < 0.5 h.

Q: And the Cmax (Rattus norvegicus [6])?
A: Its Cmax is 0.341 µg/mL.

Q: And the Tmax (Rattus norvegicus [7])?
A: Its Tmax is 4.05 h.

Q: What about the AUC (Rattus norvegicus [8]) of the same molecule?
A: The AUC was 3.33 µg·h/mL.

Q: And the AUC (Rattus norvegicus [9])?
A: The AUC was 3.44 µg·h/mL.

Q: What about the MRT (Rattus norvegicus [10]) of the same molecule?
A: The MRT was 4.01 h.

Q: And the t1/2 (Rattus norvegicus [11])?
A: The t1/2 was 2.93 h.

Q: For `CCCOC(=O)n1c(-c2ccc(-c3ccc(-c4cnc([C@@H]5CCCN5C(=O)[C@@H](NC(=O)OC)C(C)C)n4C(=O)OCCC)cc3)cc2)cnc1[C@@H]1CCCN1C(=O)[C@@H](NC(=O)OC)C(C)C`, which EC50 (Hepatitis C virus [1]) is on record?
A: The EC50 was > 100000 nM.

Q: With `CCCC(=O)n1c(-c2ccc(-c3ccc(-c4cnc([C@@H]5CCCN5C(=O)[C@@H](NC(=O)OC)C(C)C)n4C(=O)CCC)cc3)cc2)cnc1[C@@H]1CCCN1C(=O)[C@@H](NC(=O)OC)C(C)C` as the molecule, how does the EC50 (Hepatitis C virus [1]) read?
A: The EC50 was 85 nM.

Q: Which EC50 (Hepatitis C virus [1]) does the source give for `CCCCCC(=O)n1c(-c2ccc(-c3ccc(-c4cnc([C@@H]5CCCN5C(=O)[C@@H](NC(=O)OC)C(C)C)n4C(=O)CCCCC)cc3)cc2)cnc1[C@@H]1CCCN1C(=O)[C@@H](NC(=O)OC)C(C)C` here?
A: Its EC50 is 324 nM.

Q: Which EC50 (Hepatitis C virus [1]) does the source give for `COC(=O)N[C@H](C(=O)N1CCC[C@H]1c1ncc(-c2ccc(-c3ccc(-c4cnc([C@@H]5CCCN5C(=O)[C@@H](NC(=O)OC)C(C)C)n4C(=O)c4ccc(Cl)cc4)cc3)cc2)n1C(=O)c1ccc(Cl)cc1)C(C)C` here?
A: The EC50 was 77 nM.

Q: Which EC50 (Hepatitis C virus [1]) does the source give for `COC(=O)N[C@H](C(=O)N1CCC[C@H]1c1ncc(-c2ccc(-c3ccc(-c4cnc([C@@H]5CCCN5C(=O)[C@@H](NC(=O)OC)C(C)C)n4C(=O)CC(C)CC(C)(C)C)cc3)cc2)n1C(=O)CC(C)CC(C)(C)C)C(C)C` (some centres not stated) here?
A: Its EC50 is > 100000 nM.

Q: For `COC(=O)N[C@H](C(=O)N1CCC[C@H]1c1ncc(-c2ccc(-c3ccc(-c4cnc([C@@H]5CCCN5C(=O)[C@@H](NC(=O)OC)C(C)C)n4C(=O)CCC4CCCCC4)cc3)cc2)n1C(=O)CCC1CCCCC1)C(C)C`, which EC50 (Hepatitis C virus [1]) is on record?
A: The EC50 was 124 nM.

Q: With `COC(=O)N[C@H](C(=O)N1CCC[C@H]1c1ncc(-c2ccc(-c3ccc(-c4cnc([C@@H]5CCCN5C(=O)[C@@H](NC(=O)OC)C(C)C)n4C(=O)OCC(C)=O)cc3)cc2)n1C(=O)OCC(C)=O)C(C)C` as the molecule, how does the EC50 (Hepatitis C virus [1]) read?
A: Its EC50 is > 100000 nM.

Q: With `CCCCC(=O)n1c(-c2ccc(-c3ccc(-c4cnc([C@@H]5CCCN5C(=O)[C@@H](NC(=O)OC)C(C)C)n4C(=O)CCCC)cc3)cc2)cnc1[C@@H]1CCCN1C(=O)[C@@H](NC(=O)OC)C(C)C` as the molecule, how does the EC50 (Hepatitis C virus [1]) read?
A: The EC50 was 231 nM.

Q: With `COC(=O)N[C@H](C(=O)N1CCC[C@H]1c1ncc(-c2ccc(-c3ccc(-c4cnc([C@@H]5CCCN5C(=O)[C@@H](NC(=O)OC)C(C)C)n4C(=O)c4ccccc4)cc3)cc2)n1C(=O)c1ccccc1)C(C)C` as the molecule, how does the EC50 (Hepatitis C virus [1]) read?
A: Its EC50 is 155 nM.

Q: Which EC50 (Hepatitis C virus [1]) does the source give for `CCOC(=O)n1c(-c2ccc(-c3ccc(-c4cnc([C@@H]5CCCN5C(=O)[C@@H](NC(=O)OC)C(C)C)n4C(=O)OCC)cc3)cc2)cnc1[C@@H]1CCCN1C(=O)[C@@H](NC(=O)OC)C(C)C` here?
A: Its EC50 is > 100000 nM.

Q: With `CCC(=O)n1c(-c2ccc(-c3ccc(-c4cnc([C@@H]5CCCN5C(=O)[C@@H](NC(=O)OC)C(C)C)n4C(=O)CC)cc3)cc2)cnc1[C@@H]1CCCN1C(=O)[C@@H](NC(=O)OC)C(C)C` as the molecule, how does the EC50 (Hepatitis C virus [1]) read?
A: Its EC50 is 39 nM.

Q: Which EC50 (Hepatitis C virus [1]) does the source give for `COC(=O)N[C@H](C(=O)N1CCC[C@H]1c1ncc(-c2ccc(-c3ccc(-c4cnc([C@@H]5CCCN5C(=O)[C@@H](NC(=O)OC)C(C)C)n4C(=O)C(C)C)cc3)cc2)n1C(=O)C(C)C)C(C)C` here?
A: The EC50 was 131 nM.

Q: Which EC50 (Hepatitis C virus [1]) does the source give for `COC(=O)N[C@H](C(=O)N1CCC[C@H]1c1ncc(-c2ccc(-c3ccc(-c4cnc([C@@H]5CCCN5C(=O)[C@@H](NC(=O)OC)C(C)C)n4C(=O)c4ccc(C)cc4)cc3)cc2)n1C(=O)c1ccc(C)cc1)C(C)C` here?
A: The EC50 was 231 nM.

Q: Which EC50 (Hepatitis C virus [1]) does the source give for `COC(=O)N[C@H](C(=O)N1CCC[C@H]1c1ncc(-c2ccc(-c3ccc(-c4cnc([C@@H]5CCCN5C(=O)[C@@H](NC(=O)OC)C(C)C)n4C(=O)OC)cc3)cc2)n1C(=O)OC)C(C)C` here?
A: The EC50 was > 100000 nM.

Q: Which EC50 (Hepatitis C virus [1]) does the source give for `COC(=O)N[C@H](C(=O)N1CCC[C@H]1c1ncc(-c2ccc(-c3ccc(-c4cnc([C@@H]5CCCN5C(=O)[C@@H](NC(=O)OC)C(C)C)n4C(=O)OC(C)(C)C)cc3)cc2)n1C(=O)OC(C)(C)C)C(C)C` here?
A: Its EC50 is > 100000 nM.

Q: With `COC(=O)N[C@H](C(=O)N1CCC[C@H]1c1ncc(-c2ccc(-c3ccc(-c4cnc([C@@H]5CCCN5C(=O)[C@@H](NC(=O)OC)C(C)C)n4C(=O)Cc4ccccc4)cc3)cc2)n1C(=O)Cc1ccccc1)C(C)C` as the molecule, how does the EC50 (Hepatitis C virus [1]) read?
A: The EC50 was 687 nM.

Q: With `COC(=O)N[C@H](C(=O)N1CCC[C@H]1c1ncc(-c2ccc(-c3ccc(-c4cnc([C@@H]5CCCN5C(=O)[C@@H](NC(=O)OC)C(C)C)n4C(=O)CCC4CCCC4)cc3)cc2)n1C(=O)CCC1CCCC1)C(C)C` as the molecule, how does the EC50 (Hepatitis C virus [1]) read?
A: Its EC50 is 195 nM.

Q: With `NC(=O)c1ncn([C@@H]2O[C@H](CO)[C@@H](O)[C@H]2O)n1` [RIBAVIRIN] as the molecule, how does the Activity (Hepatitis C virus [12]) read?
A: The Activity was <50%.

Q: Which results are given for `COC(=O)N[C@H](C(=O)N1CCC[C@H]1c1nc(-c2ccc(-c3ccc(-c4c[nH]c([C@@H]5CCCN5C(=O)[C@@H](NC(=O)OC)C(C)C)n4)cc3)cc2)c[nH]1)C(C)C`?
A: Stability [2]: Stable; Stability [3]: Stable; Stability [13]: Stable; Drug metabolism (Rattus norvegicus [14]): metabolite_detected; Cmax [15]: 0.484 µg/mL; Tmax [16]: 3.01 h; AUC(0-t) at 8 h [17]: 3.21 µg·h/mL; AUC(0-inf) [18]: 3.32 µg·h/mL; MRT [19]: 3.43 h; half-life [20]: 1.66 h; EC50 (Hepatitis C virus [21]): 0.028 nM
